This note sets out measurements from patent EP4818177A1, “TRICYCLIC DERIVATIVE INHIBITOR, AND PREPARATION METHOD AND USE THEREFOR” (Shanghai Hansoh Biomedical Co., Ltd., priority 2023, dated 2025).

The test system of series [1] is MTAP Knockout HCT116 cells. Nature of the series: Cell proliferation inhibition (CellTiter-Glo), MTAP knockout cells. The format is cell-based. Conditions: for Selectivity: HCT116 versus MTAP Knockout HCT116; for IC50: 72-240 hours incubation, CellTiter-Glo. The text has this:
(§1) Test Example 2: Determination of the inhibitory effect of the compounds of the present invention on the proliferation activity of HCT116 and MTAP Knockout HCT116 cells.
(§2) 1. Experimental objective: to determine the inhibitory effect of the compound on the proliferation activity of HCT116 wild-type and HCT116 MTAP knockout cells. 2. Experimental instruments: Centrifuge (Eppendorf 5810R); microplate reader (BioTek Synergy H1 or PerkinElmer Envision); pipette (Eppendorf or Rainin). 3. Experimental reagents: HCT116 and MTAP Knockout HCT116 cells were purchased from Nanjing Cobioer; Cell Titer-Glo was purchased from Promega (Cat. No. G7573); McCoy' 5A was purchased from Gibco (Cat. No. 12330031); FBS was purchased from Gibco (Cat. No. 10091148); PBS was purchased from Gibco (Cat. No. 10010023); trypsin was purchased from Gibco (Cat. No. 25200056); cell culture plates were purchased from Corning (Cat. No. 3610). 4. Experimental methods: HCT116 and MTAP Knockout HCT116 cells were cultured in McCoy'5A medium containing 10% FBS until an appropriate cell density was reached. The cells were then collected and adjusted to a suitable concentration using complete medium. The cell suspension was seeded into a 96-well plate at 90 µL per well and allowed to adhere overnight in a 37°C, 5% CO2 incubator. Compound solutions of various concentrations were prepared using DMSO and culture medium, with a vehicle control set. The compound solutions were added to the 96-well plate at 10 µL per well, and the plate was incubated in a 37°C, 5% CO2 incubator for an additional 72-240 hours. After incubation, CellTiter-Glo solution was added, and the mixture was mixed uniformly by shaking, followed by incubation in the dark for 10 to 30 minutes. Luminescence was measured using a Synergy H1 or Envision microplate reader. 5. Experimental data processing method: The inhibition rate was calculated using the luminescence signal values, and the concentrations along with the inhibition rates were subjected to non-linear regression curve fitting using Graphpad Prism software to obtain the IC50 values.

Another series concerns HCT116 wild-type cells. The experiment in a line: Cell proliferation inhibition (CellTiter-Glo), wild-type cells. Conditions: 72-240 hours incubation. The series is classed as cell-based.
Description: as §1, §2

A short description of series [2]: Pharmacokinetics in rats (plasma) after oral administration. Conditions: male, SD, rat, 5 mg/kg.
Description: Test Example 4: Determination of the pharmacokinetics of the compounds of the present invention in rats (plasma) after oral administration.
Study objective: SD rats were used as test animals to study the pharmacokinetic behaviour of the following example compounds in rats (plasma) after oral administration at a dose of 5 mg/kg. […] Test scheme 2.1 Test drugs: Vehicle formula: 0.5% CMC-Na (1% Tween 80); the examples of the present invention, prepared in house. 2.2 Test animals: 3 SD rats per group, male, purchased from Shanghai Bikai Keyi Biotechnology Co., Ltd., with animal license number (SCXK (Shanghai) 2018-0006, No.20180006037467). 2.3 Administration: 3 SD rats per group, male, were fasted overnight and then respectively administered PO at a dose of 5 mg/kg and a volume of 10 mL/kg. 2.4 Sample collection: 0.2 mL of blood was collected from the jugular vein of rats before administration and at 0, 0.25, 0.5, 1, 2, 4, 6, 8 and 24 h after administration, and placed in EDTA-K2test tubes, and the test tubes were centrifuged at 6,000 rpm at 4°C for 6 min to separate the plasma, which was stored at -80°C. The animals were fed 4 h after administration. 2.5 Sample treatment • 1) 160 uL of acetonitrile was added to 40 uL of plasma sample for precipitation, and after mixing, the mixture was centrifuged at 3,500 × g for 5-20 minutes. • 2) 100 uL of the treated supernatant solution was taken for LC/MS/MS analysis to determine the concentration of the test compounds. 2.6 Liquid phase analysis • Liquid phase conditions: Shimadzu LC-20AD pump; • Mass spectrometry conditions: AB Sciex API 4000 mass spectrometer; • Chromatographic column: phenomenex Gemiu 5 um C18 50 × 4.6 mm; • Mobile phase: solution A: 0.1% formic acid in water, solution B: methanol; • flow rate: 1.0 mL/min; Elution time: 0-4.0 min, with eluents as follows:
Experimental results and analysis: The main pharmacokinetic parameters were calculated using WinNonlin 8.2.
Series [3] concerns the target T1, PRMT5/MEP50-MTA protein complex (Homo sapiens, UniProt O14744).
T1 construct: purchased Viva Biotech
Nature of the series: Thermal shift assay: change in melting temperature of the PRMT5/MEP50-MTA protein complex. The series is classed as binding. Conditions: compound 8 µM, PRMT5/MEP50 2 µM, MTA 2 µM; Tm minus DMSO vehicle control. Put shortly:
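Human PRMT5/MEP50 (2 µM) preincubated 30 min at room temperature in 50 mM HEPES, 10 mM DTT, 250 mM NaCl with 2 µM MTA and SYPRO Orange. Compound at 8 µM final, 10 min at room temperature, 2.5% DMSO vehicle control. Melt curve 25→95°C at 0.03°C/s gives Tm.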

The next series concerns the target T2, hERG potassium channel (Homo sapiens, UniProt Q12809).
T2 construct: host or cells: CHO cells stably expressing hERG (CHO-hERG)
Nature of the series: hERG potassium channel inhibitory activity assay (patch clamp, CHO-hERG cells). The series is classed as cell-based. The settings on record: tail current, read-out: inhibitory activity (IC50) against the cardiac hERG potassium channel. The text has this:
Test Example 5: hERG potassium channel inhibitory activity assay
1. Study objective: to determine the inhibitory effect of the compound on the hERG potassium channel activity. 2. Experimental instruments and reagents: 2.1 Reagents
3. Experimental methods • 3.1 Cell culture: The CHO cells stably expressing the hERG potassium channel (CHO-hERG) used in the experiment were obtained from Sophion Bioscience (Ballerup, Denmark), and passaged and cryopreserved at WuXi AppTec Co., Ltd. in Shanghai. The CHO-hERG cells were cultured and passaged in Ham's F-12 medium containing 1 × GlutaMAX, 10% fetal bovine serum, 100 µg/mL G418 and 100 µg/mL hygromycin B at 37°C with 5% CO2. • 3.2 Preparation of intracellular and extracellular solutions: The extracellular solution was prepared once a month, and aliquoted and stored in 1 L storage bottles. The intracellular solution was prepared once every three months, and aliquoted and cryopreserved at -20°C. The intracellular solution was thawed in a 37°C water bath before the experiment and then placed in an ice bath for later use. • 3.3 Preparation of compounds: The compounds were dissolved in 100% DMSO (Sigma-Aldrich, D2650) to prepare 10 mM or 30 mM stock solutions. Before the experiment, the stock solutions of the test compounds were diluted with DMSO to prepare solutions 1000-fold or 333-fold higher than the desired test concentrations, and then further diluted 1000-fold or 333-fold with the extracellular solution to achieve the desired concentrations. • 3.4 Cell preparation: The CHO-hERG cells used in the experiment were cultured for at least two days. When the cell density reached more than 75%, the cells were digested with TrypLE, then resuspended in the extracellular solution, and centrifuged. The supernatant was discarded, and then the cells were further resuspended in 2 mL of extracellular solution for later use. 4. Experimental data processing: In data processing, the peak tail current was baseline-corrected when evaluating the hERG blocking effect. The effect of each compound at various concentrations was expressed as the inhibition rate of the tail current. IC50 values were obtained by fitting the data to the Hill equation: I/Icontrol = Bottom + (Top−Bottom)/(1+10^(∧)((LogIC50−X)*HillSlope)) [formula] • Top: maximum effect; Bottom: minimum effect; Hillslope: slope; X: concentration of the test compound. • IC50: half-maximal inhibitory concentration of the test compound on hERG. […] 5.

Where [4] appears, read: Homo sapiens, HCT-116, MTAP Knockout HCT116 cells.
[5] abbreviates: Homo sapiens, HCT-116, HCT116 wild-type cells.

T1 sequence (O14744 whole entry): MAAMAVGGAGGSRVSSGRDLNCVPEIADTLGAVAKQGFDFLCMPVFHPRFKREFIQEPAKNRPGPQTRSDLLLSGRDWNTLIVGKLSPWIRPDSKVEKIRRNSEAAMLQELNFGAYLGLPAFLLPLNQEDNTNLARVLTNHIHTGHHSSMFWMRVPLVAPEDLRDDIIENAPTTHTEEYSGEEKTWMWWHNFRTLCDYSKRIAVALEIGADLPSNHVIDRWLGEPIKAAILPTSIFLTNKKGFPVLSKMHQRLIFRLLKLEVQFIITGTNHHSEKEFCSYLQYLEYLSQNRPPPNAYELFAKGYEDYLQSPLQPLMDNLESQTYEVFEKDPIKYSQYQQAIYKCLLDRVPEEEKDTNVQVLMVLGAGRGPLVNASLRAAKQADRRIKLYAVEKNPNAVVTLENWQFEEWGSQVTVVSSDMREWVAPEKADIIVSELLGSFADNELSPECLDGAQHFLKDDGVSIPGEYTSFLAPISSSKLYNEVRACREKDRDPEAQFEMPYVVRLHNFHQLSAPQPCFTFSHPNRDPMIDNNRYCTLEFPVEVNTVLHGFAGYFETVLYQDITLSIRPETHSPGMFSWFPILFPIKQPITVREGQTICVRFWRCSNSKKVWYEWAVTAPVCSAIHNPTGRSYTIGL
T1 sequence (Q9BQA1 whole entry partner): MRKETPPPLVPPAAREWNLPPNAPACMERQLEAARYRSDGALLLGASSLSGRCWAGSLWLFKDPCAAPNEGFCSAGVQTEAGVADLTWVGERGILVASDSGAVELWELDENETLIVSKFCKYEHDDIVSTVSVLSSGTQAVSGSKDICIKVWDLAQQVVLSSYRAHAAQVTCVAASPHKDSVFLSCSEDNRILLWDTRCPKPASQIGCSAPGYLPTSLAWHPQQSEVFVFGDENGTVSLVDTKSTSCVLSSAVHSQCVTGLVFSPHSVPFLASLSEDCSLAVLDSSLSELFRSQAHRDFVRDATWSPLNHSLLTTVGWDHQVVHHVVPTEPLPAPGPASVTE
T2 sequence (Q12809 whole entry): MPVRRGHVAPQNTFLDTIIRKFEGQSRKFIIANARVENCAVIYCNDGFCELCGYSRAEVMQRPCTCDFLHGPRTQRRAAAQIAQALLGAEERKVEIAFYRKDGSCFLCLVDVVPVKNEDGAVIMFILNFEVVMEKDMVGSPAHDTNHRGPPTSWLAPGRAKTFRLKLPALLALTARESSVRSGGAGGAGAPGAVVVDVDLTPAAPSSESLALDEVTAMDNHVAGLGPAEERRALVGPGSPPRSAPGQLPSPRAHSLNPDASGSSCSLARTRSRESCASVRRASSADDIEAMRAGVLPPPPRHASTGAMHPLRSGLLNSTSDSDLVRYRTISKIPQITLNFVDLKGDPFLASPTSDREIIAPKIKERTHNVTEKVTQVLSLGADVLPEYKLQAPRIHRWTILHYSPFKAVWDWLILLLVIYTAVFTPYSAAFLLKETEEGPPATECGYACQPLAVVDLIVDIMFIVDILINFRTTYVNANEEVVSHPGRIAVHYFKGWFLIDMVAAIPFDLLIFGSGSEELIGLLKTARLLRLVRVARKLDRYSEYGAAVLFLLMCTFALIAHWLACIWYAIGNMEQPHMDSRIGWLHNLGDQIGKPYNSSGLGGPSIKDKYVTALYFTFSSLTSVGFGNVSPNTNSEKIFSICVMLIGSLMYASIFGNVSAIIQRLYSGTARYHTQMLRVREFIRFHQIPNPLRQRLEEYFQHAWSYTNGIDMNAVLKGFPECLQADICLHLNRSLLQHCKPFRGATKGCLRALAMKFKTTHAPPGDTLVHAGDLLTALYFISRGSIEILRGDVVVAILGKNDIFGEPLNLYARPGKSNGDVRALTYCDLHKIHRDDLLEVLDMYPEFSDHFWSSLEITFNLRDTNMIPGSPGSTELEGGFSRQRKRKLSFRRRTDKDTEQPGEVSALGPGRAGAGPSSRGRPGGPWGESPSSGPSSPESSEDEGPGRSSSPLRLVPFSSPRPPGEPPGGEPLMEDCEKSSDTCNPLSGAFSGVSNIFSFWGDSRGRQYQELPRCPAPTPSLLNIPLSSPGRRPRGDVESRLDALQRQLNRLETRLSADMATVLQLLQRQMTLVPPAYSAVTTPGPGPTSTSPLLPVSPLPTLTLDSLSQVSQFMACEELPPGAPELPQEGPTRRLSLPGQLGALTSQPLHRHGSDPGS

Take `CNN(C(=O)c1cc2c(cn1)nc(N)c1cnn(C)c12)[C@@H]1COc2cc(S(F)(F)(F)(F)F)ccc21` (single isomer, unassigned) [Example 375-P1]: the Selectivity in series [1] amounted to 17. Further, the IC50 in series [1] (setting [4]) came out at 7.9 nM. Moreover, the IC50 with HCT116 wild-type cells (setting [5]) worked out at 133 nM. In series [2], the AUC(0-inf) was 2130 ng·h/mL, the Cmax was found to be 287 ng/mL, the MRT inf was 5 h and the Tmax came to 1.3 h. This molecule showed a half-life in series [2] of 3.3 h. Moreover, in series [3], the ΔTm at 8 µM is 13 °C.

Regarding `[2H]C([2H])([2H])NN(C(=O)c1cc2c(cn1)nc(N)c1cnn(C)c12)C1COCc2c1ccn1c(C(F)(F)F)cnc21` (single isomer, unassigned) [Example 391-P1], the Selectivity in series [1] was determined as 14. The IC50 was 8.8 nM in series [1] (MTAP Knockout HCT116 cells), over 30000 nM on hERG potassium channel and 121 nM in the series with HCT116 wild-type cells (HCT116 wild-type cells). In addition, the “ΔTm (°C)” value in series [3] was determined as 13.02 °C.

For the molecule `[2H]C([2H])([2H])NN(C(=O)c1cc2c3c(c(N)nc2cn1)COC3)[C@H]1COCc2c1ccn1c(C(F)(F)F)cnc21` (stereo in doubt) [Example 371-P1, (R)-4-amino-N'-(methyl-d3)-N-(3-(trifluoromethyl)-7,10-dihydro-8H-imidazo[1,2-a]pyrano[3,4-c]pyridin-7-yl)-1,3-dihydrofuro[3,4-c][1,7]naphthyridine-8-carbohydrazide], in series [1], the Selectivity was 121. The half-maximal inhibitory concentration (IC50) in series [1] (setting [4]) was found to be 8.5 nM. For the same molecule, the IC50 in the series with HCT116 wild-type cells (setting [5]) amounted to 1040 nM. Also, in series [2], the AUC(0-inf) was 4800 ng·h/mL, the peak level (Cmax) was 1600 ng/mL, the MRT inf came out at 2.5 h and the Tmax was 0.8 h. The molecule further showed a half-life in series [2] of 1.6 h. Further, the ΔTm at 8 µM in series [3] is 11.6 °C.

As for `Cc1cc2nc(N)c3cncn3c2cc1C(=O)N(C1COCc2nc(C(F)(F)F)ccc21)N(C)C` (centres unmarked) [Example 276, 4-Amino-N',N',7-trimethyl-N-(2-(trifluoromethyl)-5,8-dihydro-6H-pyrano[3,4-b]pyridin-5-yl)imidazo[1,5-a]quinoxaline-8-carbohydrazide], at hERG potassium channel, the IC50 was over 30000 nM. The ΔTm at 8 µM in series [3] was 10.4 °C.

Regarding `CNN(C(=O)c1cc2c3c(c(N)nc2cn1)COC3)[C@@H]1COCc2c1ccn1c(C(F)(F)F)cnc21` [Example 285, 4-Amino-N'-methyl-N-(3-(trifluoromethyl)-7,10-dihydro-8H-imidazo[1,2-a]pyrano[3,4-c]pyridin-7-yl)-1,3-dihydrofuro[3,4-c][1,7]diazanaphthalene-8-carbohydrazide], the Selectivity in series [1] is recorded as 120. Besides, the IC50 in series [1] (setting [4]) is 10 nM. Further, the IC50 in the series on HCT116 wild-type cells (setting [5]) came out at 1150 nM. Further, in series [2], the AUC(0-inf) was 4980 ng·h/mL, the Cmax was 999 ng/mL, the MRT inf turned out to be 4.8 h and the Tmax was found to be 0.8 h. Moreover, the half-life in series [2] is 4.2 h. In series [3], the ΔTm at 8 µM was found to be 11.6 °C.

Take `[2H]C([2H])([2H])NN(C(=O)c1ccc2nc(N)c3cnn(C)c3c2c1)[C@@H]1COCc2nc(C(F)(F)F)ccc21` [Example 317]: the Selectivity in series [1] was 130. In addition, the IC50 in series [1] (setting [4]) came to 3.9 nM. Further, the IC50 with HCT116 wild-type cells (setting [5]) stood at 508 nM. In series [2], the total exposure AUC(0-inf) worked out at 739 ng·h/mL, the highest level (Cmax) was 240 ng/mL, the MRT inf is 2.8 h and the Tmax was determined as 1 h. In addition, in series [2], the half-life is 1.9 h. Besides, the ΔTm at 8 µM in series [3] was 11.6 °C.

With `[2H]C([2H])([2H])NN(C(=O)c1cc2c3c(c(N)nc2cn1)COC3)C1COCc2nc(C(F)(F)F)ccc21` (centres unmarked) [Example 321], the IC50 on hERG potassium channel was over 30000 nM. Further, the ΔTm at 8 µM in series [3] came to 10.9 °C.

Take `[2H]C([2H])([2H])NN(C(=O)c1cc2c3c(c(N)nc2cc1C)COC3)C1COCc2c1ccn1c(C(F)(F)F)cnc21` (centres unmarked) [Example 357, 4-Amino-7-methyl-N'-methyl-d3-N-(3-trifluoromethyl-7,10-dihydro-8H-imidazo[1,2-a]pyrano[3,4-c]pyridin-7-yl)-1,3-dihydrofuro[3,4-c]quinoline-8-carbohydrazide]: the Selectivity in series [1] is recorded as 100. Further, the IC50 in series [1] (setting [4]) was found to be 7.6 nM. In the series with HCT116 wild-type cells (setting [5]), the IC50 stood at 760 nM. Moreover, in series [2], the AUC(0-inf) turned out to be 1080 ng·h/mL, the highest level (Cmax) was 360 ng/mL, the MRT inf stood at 2.2 h and the Tmax came to 0.7 h. The same molecule gave a half-life in series [2] of 1.2 h. Also, the ΔTm at 8 µM in series [3] is 12.2 °C.

As to `[2H]C([2H])([2H])NN(C(=O)c1cc2c3c(c(N)nc2cn1)COC3)C1COCc2c1ccn1c(C(F)(F)F)cnc21` (centres unmarked) [Example 371, 4-Amino-N'-(methyl-d3)-N-(3-(trifluoromethyl)-7,10-dihydro-8H-imidazo[1,2-a]pyrano[3,4-c]pyridin-7-yl)-1,3-dihydrofuro[3,4-c][1,7]naphthyridine-8-carbohydrazide], at hERG potassium channel, the concentration for half-maximal inhibition (IC50) is over 30000 nM. In series [2], the AUC(0-inf) was 3730 ng·h/mL, the highest level (Cmax) was 1050 ng/mL, the MRT inf was found to be 4.4 h and the time to peak (Tmax) amounted to 0.5 h. For the same molecule, the half-life in series [2] is 4.4 h. Besides, the ΔTm at 8 µM in series [3] turned out to be 10.6 °C.

Consider `[2H]C([2H])([2H])NN(C(=O)c1ccc2nc(N)c3cnn(C)c3c2c1)C1COCc2c1ccn1c(C(F)(F)F)cnc21` (centres unmarked) [Example 436], for which the Selectivity in series [1] was determined as 185. Further, the IC50 in series [1] (setting [4]) stood at 8.9 nM. Moreover, the IC50 in the series with HCT116 wild-type cells (setting [5]) is 1640 nM. In series [2], the AUC(0-inf) was found to be 2030 ng·h/mL, the concentration peaked (Cmax) at 143 ng/mL, the MRT inf was 14.9 h and the Tmax came out at 3.3 h. The half-life in series [2] was 10.8 h. Also, the ΔTm at 8 µM in series [3] worked out at 11.5 °C.

For `CNN(C(=O)c1cc2c(cc1C)nc(N)c1cnn(C)c12)C1COc2cc(S(F)(F)(F)(F)F)ccc21` (centres unmarked) [Example 451, 4-Amino-N',1,7-trimethyl-N-(6-(pentafluorosulphanyl)-2,3-dihydrobenzofuran-3-yl)-1H-pyrazolo[4,3-c]quinoline-8carbohydrazide], the Selectivity in series [1] is given as 21. In addition, the results for the IC50 (in series [1] (setting [4]); in the series on HCT116 wild-type cells (setting [5])) were 4.2 nM and 89 nM, respectively. In addition, in series [3], the ΔTm at 8 µM stood at 13.7 °C.

The IC50 is the concentration that gives 50% inhibition. The AUC(0-inf) is the area under the concentration-time curve extrapolated to infinity. A low value points to less exposure. As a reminder, the Cmax is the maximum level reached in the sampled fluid or tissue. As usually defined, the MRT inf is a mean duration of stay, worked out from the concentration-time curve. What is called Tmax is the time at which the peak concentration occurs. In general, half-life refers to the time needed for the level to fall by half in the phase considered. A lower half-life goes with fast loss. Broadly, the ΔTm is the change in melting temperature against a reference sample.
